Laboratory results reported in paper PMC12694606, “DNA-programmed bispecific peptide assemblies for delivering cytotoxic payload to cells expressing EGFR and MET receptors” (RSC Chemical Biology, 2025).
Non-standard residues stand in square brackets, D forms with d. Residues, ends and D or L forms follow the SMILES beside them. *: point of attachment. Dolaproine = CO[C@@H]([C@@H]1CCCN1)[C@@H](C)C(=O)O; Dil = CC[C@H](C)[C@H](NC)[C@@H](CC(=O)O)OC; X1 = C[C@@H](N*)[C@@H](O)c1ccccc1; NMeV = CN[C@H](C(=O)O)C(C)C

Tested on: A549 cells (EGFR+, MET+)
Experiment: AlamarBlue cell viability assay, A549 cells
Protocol: Fig. 5 (a) Arming DNA-template strands in OS21 and OS21+3 with the toxin vcMMAE. […] Viability was normalized to PBS treatment (100% value) and ethanol treatment (0% value). Conditions: 10^4 cells per well in 100 µL medium and propagated 24 h to a confluency of ca. 85% cells, probes were incubated for 10 min in PBS, 37 °C, 5% CO2; AlamarBlue assay in full medium, 6 h.
A549 cells were incubated with the oligonucleotide assemblies for ten minutes. Cell viability was assessed six hours later using an AlamarBlue assay. […] For comparison, we assessed the viability response to treatment with MMAE at a 100 nM concentration in unconjugated form. […] Next, the cells were treated in the presence of HGF.
A549 cells were seeded into wells of a 96 well-microtiter plate (100 μL in respective medium)
at a density of 10 4 cells/well. Cells were allowed to grow for 24 h to a confluency of ca. 85%.
The medium was removed and wells carefully washed once with PBS (preheated at 37°C). The
probes were added at specific concentrations in PBS with or without HGF (100 ng/mL). The
cells were incubated at 37°C, 5% CO 2 for 10 minutes. After one careful wash with PBS, 10%
alamar blue was added, and the fluorescence signal (590 nm) was recorded after 6 hours using
Cytotoxicity of cathepsin B-cleavable vcMMAE-DNA-peptide complex with different […]

CC[C@H](C)[C@@H]([C@@H](CC(=O)N1CCC[C@H]1[C@H](OC)[C@@H](C)C(=O)N[C@H](C)[C@@H](O)c1ccccc1)OC)N(C)C(=O)[C@@H](NC(=O)[C@@H](NC)C(C)C)C(C)C [MMAE, monomethyl auristatin E] (H-[NMeV]V[Dil][Dolaproine]-X1)
cell viability (100 nM, unconjugated form, 10 min in PBS, AlamarBlue 6 h (Fig. S17)): 79%

HGF: hepatocyte growth factor, used at 100 ng/mL to induce MET internalization
cell viability, control experiments (in words) (Fig. S17, 10 min in PBS, AlamarBlue 6 h): unaffected
